Test results from ChEMBL document CHEMBL3885861, “Open TG-GATES”.

Organism: Rattus norvegicus
Experiment: Open TG-GATES - Regimen: Single
Format: toxicity, organism-based, Sprague-Dawley
Design: regimen Single, gender Male, age 6 weeks
Conditions: in vivo, po, 0 mg/kg, route gavage, dose level Control; for APTT / Bas / Eos / Fbg / Hb / Ht / MCH / MCHC / MCV / Mono / PT / Plat / RBC / Ret / WBC: tissue Blood; for ALP / ALT / CRE / DBIL / GLC / IP / K / LDH / Na / PL / RALB / TBIL / TC / TG / TP / gamma-GTP: tissue Plasma

## CCN(CC)C(=S)SSC(=S)N(CC)CC
3 h
  TERMINAL_BW: 212.4 g
  APTT: 21.9 s
  Bas: 0%
  Eos: 0.6%
  Fbg: 285.8 mg/dL
  Hb: 13.2 g/dL
  Ht: 40.8%
  MCH: 20.6 pg
  MCHC: 32.3%
  MCV: 63.8 fL
  Mono: 2.6%
  PT: 16.5 s
  Plat: 98.3 x10_4/uL
  RBC: 639.2 x10_4/ul
  Ret: 7.6%
  WBC: 97.5 x10_2/uL
  ALP: 1602.8 IU/L
  ALT: 48 IU/L
  CRE: 0.2 mg/dL
  DBIL: 0 mg/dL
  GLC: 188.6 mg/dL
  IP: 7.8 mg/dL
  K: 4.2 meq/L
  LDH: 236.6 IU/L
  Na: 141.4 meq/L
  PL: 138 mg/dL
  RALB: 3 g/dL
  TBIL: 0.006 mg/dL
  TC: 73.6 mg/dL
  TG: 72.4 mg/dL
  TP: 5.5 g/dL
  gamma-GTP: 1 IU/L
6 h
  TERMINAL_BW: 208.9 g
  APTT: 21.8 s
  Bas: 0%
  Eos: 0.8%
  Fbg: 286.4 mg/dL
  Hb: 12.8 g/dL
  Ht: 39.4%
  MCH: 20.1 pg
  MCHC: 32.4%
  MCV: 62 fL
  Mono: 2%
  PT: 16.6 s
  Plat: 119.2 x10_4/uL
  RBC: 635.6 x10_4/ul
  Ret: 7.1%
  WBC: 102.5 x10_2/uL
  ALP: 1209.4 IU/L
  ALT: 38.8 IU/L
  CRE: 0.1 mg/dL
  DBIL: 0 mg/dL
  GLC: 184 mg/dL
  IP: 9.5 mg/dL
  K: 4.4 meq/L
  LDH: 188 IU/L
  Na: 141 meq/L
  PL: 124.6 mg/dL
  RALB: 3 g/dL
  TBIL: 0.004 mg/dL
  TC: 71.8 mg/dL
  TG: 56.8 mg/dL
  TP: 5.3 g/dL
  gamma-GTP: 1 IU/L
9 h
  TERMINAL_BW: 212.5 g
  APTT: 23.3 s
  Bas: 0%
  Eos: 0.8%
  Fbg: 297.2 mg/dL
  Hb: 12.9 g/dL
  Ht: 39.9%
  MCH: 20.2 pg
  MCHC: 32.3%
  MCV: 62.6 fL
  Mono: 2.6%
  PT: 16.4 s
  Plat: 107.7 x10_4/uL
  RBC: 638.6 x10_4/ul
  Ret: 7.1%
  WBC: 111.4 x10_2/uL
  ALP: 1326.8 IU/L
  ALT: 33.6 IU/L
  CRE: 0.2 mg/dL
  DBIL: 0.002 mg/dL
  GLC: 198.8 mg/dL
  IP: 10 mg/dL
  K: 4.1 meq/L
  LDH: 130 IU/L
  Na: 140.8 meq/L
  PL: 132.4 mg/dL
  RALB: 3.1 g/dL
  TBIL: 0.008 mg/dL
  TC: 72.6 mg/dL
  TG: 82.4 mg/dL
  TP: 5.4 g/dL
  gamma-GTP: 1 IU/L
24 h
  TERMINAL_BW: 229.8 g
  APTT: 20.8 s
  Bas: 0%
  Eos: 1%
  Fbg: 278.6 mg/dL
  Hb: 12.5 g/dL
  Ht: 38.4%
  MCH: 20.4 pg
  MCHC: 32.6%
  MCV: 62.5 fL
  Mono: 2.6%
  PT: 16.4 s
  Plat: 106.2 x10_4/uL
  RBC: 613.8 x10_4/ul
  Ret: 7.5%
  WBC: 83.8 x10_2/uL
  ALP: 1487.8 IU/L
  ALT: 40.4 IU/L
  CRE: 0.1 mg/dL
  DBIL: 0 mg/dL
  GLC: 193.4 mg/dL
  IP: 7.8 mg/dL
  K: 4.2 meq/L
  LDH: 167.6 IU/L
  Na: 141.2 meq/L
  RALB: 3 g/dL
  TBIL: 0.01 mg/dL
  TC: 78.4 mg/dL
  TG: 81.6 mg/dL
  TP: 5.5 g/dL
  gamma-GTP: 1.8 IU/L
